# Data from patent US7053088B2, “Vanilloid receptor ligands and their use in treatments” (Amgen Inc., priority 2002, dated 2006).
row,Compound,melting point
1,CC(C)(C)c1ccc(-c2cc(Nc3ccc4nn[nH]c4c3)ncn2)cc1 [(3H-benzotriazol-5-yl)-[6-(4-tert-butylphenyl)pyrimidin-4-yl]amine],250 to 252 °C
2,FC(F)(F)c1ccc(-c2cc(Nc3ccc(Cl)c(C(F)(F)F)c3)ncn2)cc1 [(4-chloro-3-trifluoromethylphenyl)-[6-(4-trifluoromethylphenyl)pyrimidin-4-yl]amine],172 to 175 °C
3,FC(F)(F)c1ccc(-c2cc(Nc3ccc(Cl)cc3)ncn2)cc1 [(4-chlorophenyl)-[6-(4-trifluoromethylphenyl)pyrimidin-4-yl]amine],193 to 196 °C
4,"FC(F)(F)c1ccc(-c2cc(Nc3ccc4c(n3)NCCC4)ncn2)cc1 [(5,6,7,8-tetrahydro[1,8]naphthyridin-2-yl)-[6-(4-trifluoromethylphenyl)pyrimidin-4-yl]amine]",168 °C
5,COc1ccc(Nc2cc(-c3ccc(C(F)(F)F)cc3)ncn2)cn1 [(6-methoxypyridin-3-yl)-[6-(4-trifluoromethylphenyl)pyrimidin-4-yl]amine],123 to 127 °C
6,FC(F)(F)c1ccc(-c2cc(Nc3ccc4scnc4c3)ncn2)cc1 [Benzothiazol-5-yl-[6-(4-trifluoromethylphenyl)pyrimidin-4-yl]amine],192.1 to 192.2 °C
7,CC(C)(C)c1ccc(-c2cc(Nc3ccc4ncsc4c3)nnc2-c2ccccc2)cc1 [Benzothiazol-6-yl-[5-(4-tert-butylphenyl)-6-phenylpyridazin-3-yl]amine],293 to 295 °C
8,FC(F)(F)c1ccc(-c2cc(Nc3ccc4ncsc4c3)nnc2Cl)cc1 [Benzothiazol-6-yl-[6-chloro-5-(4-trifluoromethylphenyl)pyridazin-3-yl]amine],206.3 °C (dec.)
9,FC(F)(F)c1ccc(-c2cc(Nc3ccc4cc[nH]c4c3)ncn2)cc1 [Example 42],231 to 232 °C
10,FC(F)(F)c1ccc(-c2cc(Nc3cccc4[nH]ccc34)ncn2)cc1 [Example 43],222 to 224 °C
11,CC(C)(C)c1ccc(-c2cc(Nc3cccc4[nH]ccc34)ncn2)cc1 [Example 46],241 to 242 °C
12,CC(C)(C)c1ccc(-c2cc(Nc3cnc4ccccc4c3)ncn2)cc1 [Example 47],227 to 229 °C
13,CC(C)(C)c1ccc(-c2cc(Nc3ccc4cc[nH]c4c3)ncn2)cc1 [Example 48],194 to 196 °C
14,FC(F)(F)c1ccc(-c2cc(Nc3cnc4ccccc4c3)ncn2)cc1 [Example 50],262 to 263 °C
15,CC(C)(C)c1ccc(-c2cc(Nc3ccc4[nH]ccc4c3)ncn2)cc1 [Example 54],238 to 240 °C
16,Cc1c(Cl)cccc1Nc1cc(-c2ccc(C(F)(F)F)cc2)ncn1 [Example 57],148 to 150 °C
17,Cc1ccc(Nc2cc(-c3ccc(C(F)(F)F)cc3)ncn2)cc1 [Example 60],159 to 160 °C
18,Cc1ccccc1Nc1cc(-c2ccc(C(F)(F)F)cc2)ncn1 [Example 64],117 to 119 °C
19,Cc1ccc(Cl)cc1Nc1cc(-c2ccc(C(F)(F)F)cc2)ncn1 [Example 65],144 to 146 °C
20,CC(=O)Nc1ccc(Nc2cc(-c3ccc(C(F)(F)F)cc3)ncn2)cc1 [Example 66],236 to 238 °C
21,FC(F)(F)c1ccc(-c2cc(Nc3ccc4ccccc4c3)ncn2)cc1 [Example 70],212 to 213 °C

row,Compound,melting point
1,FC(F)(F)c1ccc(-c2cc(Nc3ccc4ncccc4c3)ncn2)cc1 [Example 72],268 to 269 °C
2,FC(F)(F)c1ccc(-c2cc(Nc3cccc4cccnc34)ncn2)cc1 [Example 73],162 to 163 °C
3,FC(F)(F)c1ccc(-c2cc(Nc3cccc4ncccc34)ncn2)cc1 [Example 74],238 to 239 °C
4,FC(F)(F)c1ccc(-c2cc(Nc3cccc4ccccc34)ncn2)cc1 [Example 76],232 to 233 °C
5,"COc1ccc(-c2nnc(Nc3ccc4cccnc4c3)cc2-c2ccc(C(F)(F)F)cc2)cc1 [Example 89, [6-(4-Methoxyphenyl)-5-(4-trifluoromethylphenyl)pyridazin-3-yl]-[quinolin-7-yl]amine]",215 to 217 °C
6,CC(=O)Nc1nc2c(Nc3cc(-c4ccc(C(F)(F)F)cc4)ncn3)cccc2s1 [N-{4-[6-(4-Trifluoromethylphenyl)pyrimidin-4-ylamino]benzothiazol-2-yl}acetamide],> 250 °C
7,"CC(C)(C)c1ccc(-c2cc(Nc3ccc4ncsc4c3)nc(N)n2)cc1.Cl [N^4-Benzothiazol-6-yl-6-(4-tert-butylphenyl)pyrimidine-2,4-diamine hydrochloride]",220 to 222 °C
8,"Nc1nc2c(Nc3cc(-c4ccc(C(F)(F)F)cc4)ncn3)cccc2s1 [N^4-[6-(4-Trifluoromethylphenyl)pyrimidin-4-yl]benzothiazole-2,4-diamine]",225 to 227 °C
9,"Nc1ccc2cccc(Nc3cc(-c4ccc(C(F)(F)F)cc4)ncn3)c2n1 [N^8-[6-(4-Trifluoromethylphenyl)pyrimidin-4-yl]quinoline-2,8-diamine]",211 to 213 °C
10,FC(F)(F)c1ccc(-c2cc(Nc3ccc4cccnc4c3)ncn2)cc1 [Quinolyl-7-yl-[6-(4-trifluoromethylphenyl)pyrimidin-4-yl]amine],260 °C
11,CC(C)(C)c1ccc(-c2cc(Nc3ccc4[nH]ccc4c3)nnc2-c2ccccc2)cc1 [[5-(4-tert-Butylphenyl)-6-phenyl-pyridazin-3-yl]-(1H-indol-5-yl)-amine],138 to 140 °C
12,Nc1cc(C(F)(F)F)ccc1-c1cc(Nc2ccc3ncsc3c2)ncn1 [[6-(2-Amino-4-trifluoromethylphenyl)pyrimidin-4-yl]benzothiazol-6-ylamine],203.1 to 203.2 °C
13,"CC(C)(C)c1ccc(-c2cc(Nc3ccc4c(c3)OCCO4)ncn2)cc1 [[6-(4-tert-Butylphenyl)pyrimidin-4-yl]-(2,3-dihydrobenzo[1,4]dioxin-6-yl)amine]",199 to 202 °C
14,COc1cccc(Nc2cc(-c3ccc(C(C)(C)C)cc3)ncn2)c1 [[6-(4-tert-butylphenyl)pyrimidin-4-yl]-(3-methoxyphenyl)amine],184 to 187 °C
15,CC(C)(C)c1ccc(-c2cc(Nc3ccccc3)ncn2)cc1 [[6-(4-tert-butylphenyl)pyrimidin-4-yl]phenylamine],166 °C
16,"FC(F)(F)c1ccc(-c2cc(Nc3ccc4ncsc4c3)nnc2-c2ccc(C(F)(F)F)cc2)cc1 [benzothiazol-6-yl-[5,6-bis-(4-trifluoromethylphenyl)pyridazin-3-yl]amine]",243 °C
17,Fc1ccc(-c2nnc(Nc3ccc4ncsc4c3)cc2-c2ccc(C(F)(F)F)cc2)cc1 [benzothiazol-6-yl-[6-(4-fluorophenyl)-5-(4-trifluoromethylphenyl)pyridazin-3-yl]amine],269 °C
18,CC(C)(C)c1ccc(-c2cc(Nc3ccc4ncsc4c3)ncn2)cc1 [benzothiazol-6-yl-[6-(4-tert-butylphenyl)pyrimidin-4-yl]amine],237 °C
19,FC(F)(F)c1ccc(-c2cc(Nc3ccc4ncsc4c3)nnc2-c2ccccc2)cc1 [benzothiazol-6-yl-[6-phenyl-5-(4-trifluoromethylphenyl)pyridazin-3-yl]amine],272 °C
20,FC(F)(F)c1ccc(-c2cc(Nc3ccccc3)ncn2)cc1 [phenyl-[6-(4-trifluoromethylphenyl)pyrimidin-4-yl]amine],184 to 186 °C
21,OCc1cc2cccc(Nc3cc(-c4ccc(C(F)(F)F)cc4)ncn3)c2[nH]1 [{7-[6-(4-Trifluoromethylphenyl)pyrimidin-4-ylamino]-1H-indol-2-yl}methanol],221 to 223 °C
